One series deals with Plasmopara viticola. The series is described as follows: whole plant or invertebrate. Format: in vivo. The settings on record: foliar, read-out: disease control.
Series [1] relates to Phaeosphaeria nodorum (Septoria nodorum). The series can be described thus: Phaeosphaeria nodorum (Septoria nodorum) / wheat / leaf disc preventative (glume blotch). Format: in vivo. The settings on record: Parastagonospora nodorum, foliar, wheat leaf segments cv Kanzler, inoculated 2 days after application, assessed 5-7 days after application, read-out: disease control. The protocol:
5. Phaeosphaeria nodorum (Septoria nodorum)/Wheat/Leaf Disc Preventative (Glume Blotch): Wheat leaf segments (cv) Kanzler were placed on agar in a 24-well plate and sprayed with formulated test compound diluted in water at an application rate of 200 ppm. The leaf disks were inoculated with a spore suspension of the fungus 2 days after application. The inoculated test leaf disks were incubated at 20° C. and 75% relative humidity under a light regime of 12/12 h (light/dark) in a climate cabinet and the activity of a compound was assessed as percent disease control compared to untreated when an appropriate level of disease damage appears in untreated check leaf disks (5-7 days after application).

For series [2], the system named is Mycosphaerella graminicola (Septoria tritici). The series is described as follows: Mycosphaerella graminicola (Septoria tritici) / liquid culture (Septoria blotch). The settings on record: Zymoseptoria tritici, PDB potato dextrose broth, 24° C., 4-5 days after application, read-out: disease control (inhibition of growth determined photometrically). The format is cell-based. In short, it runs like this: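 Conidia from cryostorage were suspended in potato dextrose broth and added to test compound in DMSO at 200 ppm in microtiter wells. Plates were incubated at 24° C and growth inhibition measured photometrically 4-5 days after application.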

Series [3] concerns Monographella nivalis (Microdochium nivale). The series can be described thus: Monographella nivalis (Microdochium nivale) / liquid culture (foot rot cereals). The settings on record: PDB potato dextrose broth, 24° C., 4-5 days after application, read-out: disease control (inhibition of growth determined photometrically). The format is cell-based.
Series [4] deals with Mycosphaerella arachidis (Cercospora arachidicola). The series can be described thus: Mycosphaerella arachidis (Cercospora arachidicola) / liquid culture (early leaf spot). Format: cell-based. The settings on record: PDB potato dextrose broth, 24° C., 4-5 days after application, read-out: disease control (inhibition of growth determined photometrically). In short, it runs like this: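 Conidia from cryogenic storage mixed into potato dextrose broth and added to compound at 200 ppm in DMSO. Incubation at 24° C.; growth inhibition read photometrically 4-5 days after application.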

The subject of the next series is Fusarium culmorum. The series can be described thus: microbe, parasite or virus in culture. The format is cell-based. The settings on record: read-out: disease control (inhibition of growth determined visually).
Series [5] relates to Glomerella lagenarium (Colletotrichum lagenarium). The series can be described thus: Glomerella lagenarium (Colletotrichum lagenarium) / liquid culture (anthracnose). The format is cell-based. The settings on record: Colletotrichum orbiculare, PDB potato dextrose broth, 24° C., 3-4 days after application, read-out: disease control (inhibition of growth measured photometrically). Put shortly: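 Conidia of G. lagenarium from cryogenic storage were suspended in potato dextrose broth and added to test compound in DMSO at 200 ppm. Plates were incubated at 24° C, and growth inhibition was read photometrically 3-4 days after application.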

The test system of a further series is Pythium ultimum. The series can be described thus: Pythium ultimum / liquid culture (seedling damping off). The settings on record: Globisporangium ultimum; 200 ppm; potato dextrose broth, 24° C., 2-3 days after application; read-out: disease control (inhibition of growth determined photometrically). Format: cell-based.
The subject of a further series is Gaeumannomyces graminis. The series is described as follows: Gaeumannomyces graminis / liquid culture (take-all of cereals). Format: cell-based. The settings on record: PDB potato dextrose broth, 24° C., 4-5 days after application, read-out: disease control (inhibition of growth determined photometrically). Put shortly:
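Cryo-stored mycelial fragments in potato dextrose broth exposed to compound in DMSO at 200 ppm. Incubated at 24 °C; growth inhibition read photometrically 4–5 days after application.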

Series [6] deals with Thanatephorus cucumeris (Rhizoctonia solani). The series is described as follows: Thanatephorus cucumeris (Rhizoctonia solani) / liquid culture (foot rot, damping-off). The format is cell-based. The settings on record: PDB potato dextrose broth, 24° C., 3-4 days after application, read-out: disease control (inhibition of growth determined photometrically). Put shortly:
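Mycelial fragments from fresh liquid culture were suspended in potato dextrose broth and added to compound in DMSO at 200 ppm. After 3-4 days at 24 °C, growth inhibition was measured photometrically.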

The test system of series [7] is Puccinia recondita f. sp. tritici. The series can be described thus: Puccinia recondita f. sp. tritici / wheat / leaf disc curative (brown rust). Format: in vivo. The settings on record: foliar, 192 h, wheat leaf segments, applied one day after inoculation, assessed 8 dpi, read-out: disease control. On the procedure: 4. Puccinia recondita f. sp. tritici/Wheat/Leaf Disc Curative (Brown Rust) Wheat leaf segments are placed on agar in multiwell plates (24-well format). The leaf disks are then inoculated with a spore suspension of the fungus. One day after inoculation the test solution is applied. After appropriate incubation the activity of a compound is assessed 8 dpi (days after inoculation) as curative fungicidal activity. Dose range: 200-22 ppm.

The next series has as its system Phytophthora infestans. The series can be described thus: whole plant or invertebrate. The format is in vivo. The settings on record: in Solanum lycopersicum, foliar, read-out: disease control.
Series [8] relates to Magnaporthe grisea (Pyricularia oryzae). The format is in vivo. The settings on record: 200 ppm; rice leaf segments cv. Ballila, inoculated 2 days after application, assessed 5-7 days after application.
For series [9], the system named is Botryotinia fuckeliana (Botrytis cinerea). The series is described as follows: Botryotinia fuckeliana (Botrytis cinerea) / liquid culture (gray mould). The settings on record: Vogels broth, 24° C., 3-4 days after application, read-out: disease control (inhibition of growth determined photometrically). Format: cell-based. In short, it runs like this:
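Conidia in Vogels broth added to 96-well plates containing test compound in DMSO at 200 ppm. Incubated at 24° C. Growth inhibition read photometrically 3-4 days after application.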

Series [10] deals with Puccinia recondita f. sp. tritici. The series can be described thus: Puccinia recondita f. sp. tritici / wheat / leaf disc preventative (brown rust). The settings on record: foliar, wheat leaf segments cv Kanzler, inoculated 1 day after application, assessed 7-9 days after application, read-out: disease control. Format: in vivo. An excerpt: 3. Puccinia recondita f. sp. tritici/Wheat/Leaf Disc Preventative (Brown Rust): Wheat leaf segments cultivated variety (cv) Kanzler were placed on agar in 24-well plates and sprayed with formulated test compound diluted in water at an application rate of 200 ppm. The leaf disks were inoculated with a spore suspension of the fungus 1 day after application.

The subject of the next series is Sclerotinia sclerotiorum. The series is described as follows: Sclerotinia sclerotiorum / liquid culture (cottony rot). The format is cell-based. The settings on record: PDB potato dextrose broth, 24° C., 3-4 days after application, read-out: disease control (inhibition of growth determined visually). On the procedure:
18. Sclerotinia sclerotiorum/Liquid Culture (Cottony Rot): Mycelia fragments of a newly grown liquid culture of the fungus were directly mixed into nutrient broth (PDB potato dextrose broth). After placing a (DMSO) solution of the test compounds into a microtiter plate (96-well format) the nutrient broth containing the fungal material was added. The test plates were incubated at 24° C. and the inhibition of growth was determined visually 3-4 days after application.

Molecules are shown by their SMILES.

For orientation: inhibition means the share of the control response that was lost under treatment. With `O=C(OCC1CCC1)c1ccc2c(c1)B(O)OC2` [Compound 351], the pest or weed control at 200 ppm (with Plasmopara viticola; in [1]; in series [7]) was at least 80% throughout. For the same compound, the inhibition at 200 ppm (in series [2]; in series [3]; in series [4]; with Fusarium culmorum; in series [5]; in the series with Pythium ultimum) was at least 80% throughout. Besides, the inhibition at 200 ppm (with Gaeumannomyces graminis; in series [6]) was at least 80% each time.

In the case of `C#CCCCOC(=O)c1cc2c(cc1Cl)COB2O` [Compound 208], the pest or weed control at 200 ppm (with Plasmopara viticola; in [1]; in the series with Phytophthora infestans) was at least 80% in each case. In addition, the inhibition at 200 ppm (in [2]; in series [3]; in series [5]; in the series on Pythium ultimum; in the series on Gaeumannomyces graminis) was at least 80% throughout.

`COC(=O)c1cc2c(cc1Cl)COB2O` [Compound 21]: the disease control entry in series [8] was “at least 80%”.

Regarding `CCC#CCOC(=O)c1ccc2c(c1)B(O)OC2` [Compound 318], the pest or weed control at 200 ppm (in the series with Plasmopara viticola; in series [1]) was at least 80% throughout. Moreover, the inhibition at 200 ppm (in [2]; in [3]; in [4]; in the series with Fusarium culmorum; in the series on Pythium ultimum; in [9]) was at least 80% each time. In addition, the inhibition at 200 ppm (in the series with Gaeumannomyces graminis; in [6]) was at least 80% each time.

Regarding `O=C(Nc1ccccc1C(=O)c1ccccc1)c1cc2c(cc1F)COB2O` [Compound 161], the pest or weed control at 200 ppm (in the series with Plasmopara viticola; in series [1]; in [10]) was at least 80% each time. The inhibition at 200 ppm (in series [2]; in [3]; with Pythium ultimum) was at least 80% in each case.

A word on the melting point: it is the temperature of the solid-liquid transition. In the case of `COC(=O)c1cc2c(cc1C)COB2O` [Compound 446], the melting point fell in the range of 136 to 138 °C. For the same compound, the pest or weed control at 200 ppm in series [1] was at least 80%. Moreover, the inhibition at 200 ppm in series [2] is at least 80%. The inhibition at 200 ppm in [3] was at least 80%. In series [4], the inhibition at 200 ppm is at least 80%. The inhibition at 200 ppm in the series with Sclerotinia sclerotiorum was at least 80%. Also, in the series with Fusarium culmorum, the inhibition at 200 ppm was at least 80%. For the same compound, the inhibition at 200 ppm in series [5] was at least 80%. The inhibition at 200 ppm in the series on Pythium ultimum was at least 80%. Moreover, the inhibition at 200 ppm with Gaeumannomyces graminis is at least 80%. The inhibition at 200 ppm in series [6] is at least 80%.

On to `O=C(OCCF)c1cc2c(cc1Cl)COB2O` [Compound 233], for which the pest or weed control at 200 ppm in series [1] and in series [7] was at least 80% throughout. Moreover, the inhibition at 200 ppm (in [2]; in series [3]; in [4]; in the series on Fusarium culmorum; in [5]; in the series with Pythium ultimum) was at least 80% in each case. Besides, the inhibition at 200 ppm in the series with Gaeumannomyces graminis was at least 80%.

For the compound `O=C(OCC1CC1)c1cc2c(cc1Cl)COB2O` [Compound 202], the pest or weed control at 200 ppm (in series [1]; in the series with Phytophthora infestans) was at least 80% throughout. Also, the inhibition at 200 ppm (in series [2]; in series [3]; in [4]; with Sclerotinia sclerotiorum; in the series on Fusarium culmorum; in [5]) was at least 80% throughout. Also, the inhibition at 200 ppm (in the series on Pythium ultimum; in series [9]; in the series on Gaeumannomyces graminis; in series [6]) was at least 80% throughout.

The record behind these values is patent US20170000133A1, “BENZOXABOROLE FUNGICIDES” (SYNGENTA PARTICIPATIONS AG, priority 2013, published 2017).
